# “Also recorded” adds a separate entry of the source.
# Tests used:
# [1] = Automated hematocrits from tail bleeds of tumor-bearing SCID mice; assay type: in vivo, CB 17-SCID/SCID mice; parameters: Hematocrits: unit not given here; conditions: for Hematocrits: mice bearing small subcutaneous tumors
# Experimental: Automated hematocrits were obtained from tail bleeds performed on three mice selected randomly from each group on days −15, −7, 0, and +7. No mouse was bled twice. On day 7, mice were sacrificed and necropsies were performed. Tumors were excised and measured in three dimensions with vernier calipers. Tumor volume was calculated as follows.
# (§1) In another illustration of this embodiment, cisplatin was administered twice during the treatment. In additional forty experimental mice at six weeks of age, 2 mm portions of human ovarian cancer xenografts were implanted. Treatment groups were randomly assigned three days after implantation. Group I animals (controls) received 100 μl of PBS three times per week subcutaneously from day −15 to day +13 and 300 μl PBS ip on day 0 and 7. Mice in Group II (EPO group) received EPO subcutaneously at a dose of 20 units in 100 μl of PBS three times per week from day −15 to day +13 and 300 μl of PBS ip on day 0 and 7. Mice in Group III (cisplatin group) received cisplatin ip at a dose of 5 mg/kg in 300 μl of PBS on day 0 and 7, and 100 μl of subcutaneous PBS three times per week from day −15 to day +13. Mice in Group IV (EPO+cisplatin group) received subcutaneous EPO injections as in group 2 three times per week from day −15 to day +13 and ip cisplatin injections as in group 3 on day 0 and 7. Mice were observed until day +15.
# Automated hematocrits were obtained as described above on days −15, −7, 0, +7, and +14. The change in hematocrit relative to the initial hematocrit was plotted over time. Serial measurements of tumor nodules were made in two dimensions using vernier calipers starting on day zero. On day zero, tumors had grown to approximately 4 mm×5 mm in size in each group. Tumor volumes were calculated on days 0, +1, +3, +5, +7, +9, +11, +13 and +15 using the formula.
# Percent tumor growth was calculated for each index day compared to day 0 and plotted over time. Statistical analysis included Student T tests for the overall tumor growth in the large GFP tumor experiment. The growth curves developed in the smaller subcutaneous tumor group and the curves representing change in the hematocrit over time were analyzed by analysis of variance. Significance was defined by P values less than 0.05.
# [2] = test system: human ovarian cancer xenografts (papillary serous adenocarcinoma of the ovary); test: Large gonadal fat pad (GFP) human ovarian cancer xenograft in SCID mice, single cisplatin dose, tumor growth; assay type: in vivo, CB 17-SCID/SCID mice; conditions: large GFP tumors; cisplatin 5 mg/kg ip day 0; EPO 20 units sc three times per week day −15 to +6; necropsy day 7
# Experimental: To illustrate this embodiment, experiments were carried out in immunodeficient SCID mice bearing human ovarian cancer.
# Eighty CB 17-SCID/SCID mice (Taconic Labs) were used. The animals were kept under sterile and light-controlled conditions. Portions of tumors from patients with recurrent stage IIIC, grade 3, papillary serous adenocarcinoma of the ovary were implanted and propagated in SCID mice by procedures well known to those skilled in the art. Briefly, xenografts were grown and passaged at least five times prior to the implantation of tumors into experimental animals. […]
# Automated hematocrits were obtained from tail bleeds performed on three mice selected randomly from each group on days −15, −7, 0, and +7. […] Tumors were excised and measured in three dimensions with vernier calipers. Tumor volume was calculated as follows. […]
# The percent growth of the tumor was calculated using the formula: […]
# (§2) Percent tumor growth was calculated for each index day compared to day 0 and plotted over time. […] The growth curves developed in the smaller subcutaneous tumor group and the curves representing change in the hematocrit over time were analyzed by analysis of variance. […]
# [3] = Performance status (morbidity/mortality criteria) of treated tumor-bearing mice; assay type: in vivo, CB 17-SCID/SCID mice; parameters: key to Performance status score, individual mice: A grade of 0 equaled normal health; a grade of 5+ equaled death; conditions: for Performance status score, individual mice: mouse no. 1-10, Table 2 (counts match day +14)
# Experimental: To illustrate this embodiment, performance status of mice from Example 1 receiving the various treatments was evaluated. Performance status was assessed on days 0, +7, and +14 using five objective criteria associated with morbidity and mortality in experimental mice. The five criteria were (1) ruffled fur; (2) weakness/lethargy; (3) 20% weight loss compared to the mean weight of control animals; (4) kyphotic hunched posturing; and (5) death. A grade of 0 equaled normal health and a grade of 5+ equaled death.
# [4] = test system: human ovarian cancer xenografts; test: Small subcutaneous human ovarian cancer xenograft in SCID mice, cisplatin on day 0 and 7, tumor growth curves; assay type: in vivo, CB 17-SCID/SCID mice; conditions: subcutaneous tumor nodules; cisplatin 5 mg/kg ip day 0 and 7; EPO 20 units sc three times per week day −15 to +13; to day +15; FIG. 1
# Experimental: as §1, with “Mice in Group IV (EPO+cisplatin group) received subcutaneous EPO injections as in group 2 three times per week from day −15 to day +13 and ip cisplatin injections as in group 3 on day 0 and 7. Mice were observed until day +15.” left out
# Automated hematocrits were obtained as described above on days −15, −7, 0, +7, and +14. […] Tumor volumes were calculated on days 0, +1, +3, +5, +7, +9, +11, +13 and +15 using the formula. […]
# as §2
# [5] = in vivo; cited from earlier work
compound,measurement,setting,value
"N.N.[Cl][Pt][Cl] [CISPLATIN, cis-diamine dichloro platinum]",Hematocrits,[1]; Week 0,39.8 ± 0.3
same,Hematocrits,[1]; Week +1,40.7 ± 0.1
same,Hematocrits,[1]; Week +2,33.1 ± 0.3
same,Hematocrits,[1]; Week −1,39.8 ± 0.2
same,Hematocrits,[1]; Week −2 (initial value),39.8 ± 0.2
same,Decrease in the hematocrit,"[1]; over time vs initial value, FIG. 2",20%
same,"Tumor growth (percent tumor growth, tumor size at necropsy)",[2],significant difference in the tumor growth was observed in the groups treated with and without cisplatin
same,Mice with 20% weight loss compared to controls,"[3]; day +7, 10 mice per group",6
same,Mice with ruffled fur,"[3]; day +7, 10 mice per group",all
same,Mice with signs of weakness/lethargy,"[3]; day +7, 10 mice per group",all
same,Mice with hunched posturing,"[3]; day +14, 10 mice per group",3
same,Mortalities,"[3]; day +14, 10 mice per group",4
same,"Performance status score, individual mice",[3],+ + +; also recorded: + + + +; also recorded: + + + + +
"EPO: erythropoietin, hormone regulating red blood cell production; used as hematocrit elevator",Hematocrits,[1]; Week 0,48.9 ± 0.3
same,Hematocrits,[1]; Week +1,49.3 ± 0.3
same,Hematocrits,[1]; Week +2,53.6 ± 0.4
same,Hematocrits,[1]; Week −1,44.9 ± 0.2
same,Hematocrits,[1]; Week −2 (initial value),39.5 ± 0.2
same,Increase in the hematocrit compared to its initial value,"[1]; vs week −2, p<0.01 vs controls, FIG. 2",25-35%
same,"Tumor growth (percent tumor growth, tumor size at necropsy)",[2],No difference was observed between the controls and the EPO group
same,Tumor growth curves (percent tumor growth vs day 0),[4],no difference was observed between the controls and the EPO group
same,Half life in the plasma,[5],about 5 hours
same,Performance status scores,"[3]; day +7, all mice of the group",zero
same,"Performance status score, individual mice",[3],0
same,"Performance status score, Total","[3]; sum over 10 mice, Table 2",0

# Source: patent US6620779B2, “Method of enhancing the efficacy of anti-tumor agents” (Health Research Inc., priority 1999, dated 2003)
